Test results from patent US20030018008A1, “Formulations of adenosine a1 agonists” (priority 1999, published 2003).

System: carrageenan-induced oedema and allodynia
Experiment: Carrageenan model: weight bearing (allodynia) and paw oedema of the inflamed hind paw
Assay type: in vivo, rat
Conditions: for % Weight on inflammed paw (Allodynia): 3 h after intraplantar 2% carrageenan, 50% = no pain; for % Inhibition of carrageenan-induced allodynia / % Inhibition of carrageenan-induced oedema: compared to vehicle control; for % Inhibition of carrageenan-induced oedema: plethysmometer
Protocol: Carrageenan model for (2S, 3S, 4R, 5R)-2-(5 tert-butyl-[1,3,4]oxadiazol-2-yl)-5-[6-(4-chloro-2-fluoro-phenylamino)-purin-9-yl]-tetrahvdro-furan-3,4-diol (Adenosine A1 agonist) and alosetron.
Male Random Hooded rats (180-220 g) were used. The test compound or vehicle was administered 30 mins before the 2nd test compound or vehicle. The test compounds and vehicles used were: (i) Compound A in 1% DMSO, 66% Peg400, 33% distilled water and (ii) alosetron in saline. Both test compounds were administered via the oral route. After a further 30 mins 100 ul of 2% carrageenan was injected intraplantar into the left hind paw and the animals were then returned to their cages. Three hours later, behavioural testing of the carrageenan-induced decrease in weight on the inflamed left hind paw (% weight on the inflammed left hind paw) and associated oedema was assessed. Weight bearing was measured using the dual channel weight averager and paw oedema was assessed using a plethysmometer. The dual channel weight averager is commercially available and is described in the following abstract: Validation of the dual channel weight averager as an instrument for the measurement of inflammatory pain, N. M. Clayton et al., 1997 British Journal Pharmacol. 120, 219P.
Note: In the absense of pain, weight on the hind paws would be evenly distributed, i.e. 50% on each hind paw.
Note: Oedema is the presence of abnormally large amounts of fluid in the intercellular tissue spaces of the body and in the present example is used to provide a measure of inflammation (or anti-oedemic). Allodynia is a sensation of pain resulting from a non-injurious stimulus such as normal heat, cold or pressure on skin and in the present example the weight-bearing (allodynia) effect in used to provide a measure of analgesia.

Cc1[nH]cnc1CN1CCc2c(c3ccccc3n2C)C1=O [Alosetron, 2,3,4,5-tetrahydro-5-methyl-2-[(5-methyl-1H-imidazol-4-yl)methyl]-1H-pyrido[4,3-b]indol-1-one]
% Weight on inflammed paw (Allodynia) (Alosetron 0.3 mg/kg oral): 33.6 ± 5.5% | % Inhibition of carrageenan-induced allodynia (Alosetron 0.3 mg/kg oral): 45.1 ± 18.4% | % Inhibition of carrageenan-induced oedema (Alosetron 0.3 mg/kg oral): 28.2 ± 6.3%

CC(C)(C)c1nnc([C@H]2O[C@@H](n3cnc4c(Nc5ccc(Cl)cc5F)ncnc43)[C@H](O)[C@@H]2O)o1 [Compound A, (2S, 3S, 4R, 5R)-2-(5 tert-butyl-[1,3,4]oxadiazol-2-yl)-5-[6-(4-chloro-2-fluoro-phenylamino)-purin-9-yl]-tetrahydro-furan-3,4-diol]
% Weight on inflammed paw (Allodynia) (Compound A 0.4 mg/kg oral): 20.7 ± 4.3% | % Inhibition of carrageenan-induced allodynia (Compound A 0.4 mg/kg oral): 2.1 ± 14.3% | % Inhibition of carrageenan-induced oedema (Compound A 0.4 mg/kg oral): −3.1 ± 8.2%
